According to patent US9745272B2, “Quinazoline-2,4(1 H,3H)-dione derivatives” (Hydra Biosciences, Inc., priority 2014, dated 2017):

Columns and labels:
TRPC5 channel [1] = target: T1, TRPC5 channel (Homo sapiens, UniProt Q9UL62); experiment: Whole-cell patch clamp experiments, TRPC5 current activated by LaCl3 in TRPC5-expressing HEK293 TREx cells; type: cell-based; details: Table 3, block of TRPC5 current in continued presence of LaCl3, IC50 estimated
T1 construct: expressed in transfected cells; host or cells: HEK293/TREx (Invitrogen), stably transfected, induced with tetracycline
T1 sequence (Q9UL62 1-973): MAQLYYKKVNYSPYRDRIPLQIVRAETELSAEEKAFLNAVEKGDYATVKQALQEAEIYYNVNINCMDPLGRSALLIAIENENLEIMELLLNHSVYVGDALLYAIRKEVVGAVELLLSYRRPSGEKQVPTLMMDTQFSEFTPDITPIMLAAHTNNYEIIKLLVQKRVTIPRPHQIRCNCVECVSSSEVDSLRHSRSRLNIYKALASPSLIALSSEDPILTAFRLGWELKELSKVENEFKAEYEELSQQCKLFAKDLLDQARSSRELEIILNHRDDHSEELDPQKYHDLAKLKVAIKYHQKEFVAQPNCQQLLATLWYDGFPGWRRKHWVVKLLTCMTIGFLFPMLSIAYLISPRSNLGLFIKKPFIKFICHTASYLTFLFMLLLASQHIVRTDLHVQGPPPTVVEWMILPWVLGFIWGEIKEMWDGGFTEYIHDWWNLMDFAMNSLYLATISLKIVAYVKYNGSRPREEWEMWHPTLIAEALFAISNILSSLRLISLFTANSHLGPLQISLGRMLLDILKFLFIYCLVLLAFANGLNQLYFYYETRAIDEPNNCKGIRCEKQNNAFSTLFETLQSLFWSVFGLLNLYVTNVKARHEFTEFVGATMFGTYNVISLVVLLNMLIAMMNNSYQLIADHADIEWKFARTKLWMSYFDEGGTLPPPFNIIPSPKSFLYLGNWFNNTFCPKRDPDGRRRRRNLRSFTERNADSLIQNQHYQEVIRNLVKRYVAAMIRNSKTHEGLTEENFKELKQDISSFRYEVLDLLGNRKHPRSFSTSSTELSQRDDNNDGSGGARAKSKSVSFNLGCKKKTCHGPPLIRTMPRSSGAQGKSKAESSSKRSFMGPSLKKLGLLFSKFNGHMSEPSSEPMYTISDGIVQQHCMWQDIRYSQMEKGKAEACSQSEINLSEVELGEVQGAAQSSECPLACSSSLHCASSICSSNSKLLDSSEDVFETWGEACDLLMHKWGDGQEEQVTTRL
From the text: Patch clamp experiments permit the detection of currents through the TRPC5 channel in the cell line described above. In normal whole-cell patch clamp recordings, a glass electrode is brought into contact with a single cell and a high-resistance (gigaohm) seal is established with the cell membrane. The membrane is then ruptured to achieve the whole-cell configuration, permitting control of the voltage of the cell membrane and measurement of currents flowing across the membrane using the amplifier attached to the electrode and resulting in the replacement of cytoplasm with the pipette solution. A perfusion system permits control of the extracellular solution, including the addition of blockers and activators of the current. The current can be activated by including 1.4 μM free Ca^2+ in the pipette (intracellular) solution, and 80 μM LaCl3 in the extracellular solution.
TRPC5 cells were induced 20-48 hours, removed from growth plates, and replated at low density (to attain good single-cell physical separation) on glass coverslips for measurement. In some cases, cells were grown in low density overnight on glass coverslips. Patch clamp recordings were made in the whole-cell mode with a holding potential of −40 mV. Every 5 seconds, a voltage ramp was applied from −120 to +100 mV, 400 ms in duration. Currents elicited were quantified at −80 mV and +80 mV. The internal solution consisted of 140 mM cesium aspartate, 10 mM HEDTA, 2 mM CaCl2, 2.27 mM MgCl2 and 10 mM HEPES, pH 7.2, with 1,400 nM calculated free Ca^2+. The external solution consisted of 150 mM NaCl, 4.5 mM KCl, 1 mM MgCl2, 2 mM CaCl2, 10 mM HEPES, 10 mM glucose, 1 mM EGTA, pH 7.4. Upon addition of LaCl3, TRPC5 current was induced only in TRPC5-expressing cells and not in parental HEK293 TREx cells. Removal of the LaCl3 stimulus causes most of the current to go away. Potential blockers were tested for ability to block both inward and outward currents in the continued presence of LaCl3.
IC50 of a compound of Formula (I) was estimated by testing the compound at 5 μM and 500 nM. […] IC50 for a compound of Formula (I) between 500 nM and 5 μM was similarly estimated.

TRPC5 channel [2] = target: T1, TRPC5 channel; experiment: High throughput screening assay: Fluo4 cell-based fluorescence assay of intracellular Ca2+ rise in HEK293/TREx cells inducibly expressing TRPC5; details: Table 2, Ca2+ influx, 14 mM Ca2+
From the text: The assay depended on detection of the rise in intracellular Ca2+ concentration ([Ca2+]i) following channel activation in cells inducibly expressing the TRPC5 channel. Ca2+ rise was quantified with the use of fluorescent Ca2+ indicators that were loaded into cells and thereafter indicated the [Ca2+]i Ca2+ influx followed activation of the TRPC5 channel. Compounds inhibiting the [Ca2+]i rise were considered hits for further investigation.
The commercially available HEK293/TREx line (Invitrogen) was stably transfected with a TRPC5 construct and screened by conventional calcium imaging to find clones with TRPC5 expression following stimulation with 1 μg/ml tetracycline. These cells were maintained in the growth medium recommended by the manufacturer supplemented with 100 μg/ml hygromycin to promote retention of the TRPC5 construct. After growing to near confluency, cells were plated at a density of ˜35,000 cells/well in 384 well CellBind plates (Corning) in the presence of 1 μg/ml tetracycline, and allowed to grow for 20-30 hrs. A nearly confluent monolayer resulted. Cells were then loaded with Ca2+ dye: Fura-2/AM or Fluo4/AM was added to the wells to a final concentration of 4 μM or 0.5 μM, respectively, and incubated for 80 min or 60 min, respectively, at room temperature. Supernatant was then removed from the cells by inverting plates with a sharp flick, and 25 μl Hank's Balanced Salt Solution (HBSS; 0.185 g/l D-glucose, 0.9767 g/l MgS04 (anhydrous), 0.4 g/l KCl, 0.06 g/l KH2PO4 (anhydrous), 0.35 g/l NaHCO3, 8.0 g/l NaCl, and 0.04788 g/l Na2HPO4 (anhydrous); pH 7.4) was then added to each well. Following ˜0.5 hour for recovery from loading, cells were assayed using the Hamamatsu FDSS 6000 system, which permitted illumination alternately at 340 nm and 380 nm for Fura-2 experiments, or at 485 nm for Fluo4 experiments. Frames were acquired at a rate of 0.2 Hz. During the assay, the plates were continuously vortexed, with pipette mixing of wells following addition of each reagent. For the screening assay, 26 μl of a diluted compound stock (at 50 μM) was added to each well for 2 minutes following the collection of a short (4 frame) baseline. 13 μl 62 mM high-Ca2+ Ringer solution (4.17 ml of normal ringer (with 2 mM Ca2+) plus 5.83 ml of isotonic calcium ringer (105 mM Ca2+; in this ringer all sodium has been replaced with calcium)) was then added to each well, achieving a final concentration of 14 mM Ca2+ and 10 μM test compound. Data was collected for ˜3 minutes following addition of high Ca2+ Ringer, where the fluorescent intensity (for Fluo4) and the F340/F380 ratio (for Fura-2) were proportional to the [Ca2+]i Negative controls consisted of HEK293/TREx TRPC5 cells exposed to high Ca2+ solution, but no compound. Positive control conditions consisted of addition of 2-APB, a promiscuous blocker of TRPC5 and other channels, to columns 23 and 24 of the plates, to a final concentration of 200 μM. These controls defined a screening window, and “hits” were defined as those compounds inhibiting the fluorescence response by at least 40%. IC50 values were determined for compounds defined as “hits.” The Fluo4 cell-based fluorescence assay was used to determine the intracellular Ca2+ concentration in the presence of varying drug concentration. Final concentrations of compounds tested were 20 μM, 6.667 μM, 2.222 μM, 0.741 μM, 0.247 μM, 0.082 μM, and 0.027 μM. Compounds were tested in triplicate at all concentrations. Standard software was used to fit IC50 curves. […]

Question: Which results are given for Cn1c(=O)n(CCCO)c(=O)c2c(Cc3ccc(F)cc3)c(Oc3cccc(OC(F)(F)F)c3)ccc21 [Compound 6, 5-(4-fluorobenzyl)-3-(3-hydroxypropyl)-1-methyl-6-(3-(trifluoromethoxy)phenoxy)quinazoline-2,4(1H,3H)-dione]?
Answer: IC50 (TRPC5 channel [1]): 1.77 nM; IC50 (TRPC5 channel [2]): 61 nM

Question: Cn1c(=O)n(CCCO)c(=O)c2c(Cc3ccc(Cl)cc3)c(Oc3cccc(OC(F)(F)F)c3)ccc21 [Compound 4, 5-(4-chlorobenzyl)-3-(3-hydroxypropyl)-1-methyl-6-(3-(trifluoromethoxy)phenoxy)quinazoline-2,4(1H,3H)-dione] was tested. Which IC50 (TRPC5 channel [1]) did it give?
Answer: 1.52 nM

Question: For CCOc1ccc2c(c1Cc1ccc(Cl)cc1)c(=O)n(CCCO)c(=O)n2C [Compound 11, 5-(4-chlorobenzyl)-6-ethoxy-3-(3-hydroxypropyl)-1-methylquinazoline-2,4(1H,3H)-dione], which IC50 (TRPC5 channel [1]) is on record?
Answer: 4.2 nM

Question: With Cn1c(=O)n(CCCO)c(=O)c2c(Cc3ccccc3)c(Oc3cccc(Cl)c3)ccc21 [Compound 3, 5-benzyl-6-(3-chlorophenoxy)-3-(3-hydroxypropyl)-1-methylquinazoline-2,4(1H,3H)-dione] as the compound, how does the IC50 (TRPC5 channel [1]) read?
Answer: 2.1 nM

Question: What about the IC50 (TRPC5 channel [2]) of the same compound?
Answer: 395 nM

Question: Which IC50 (TRPC5 channel [1]) does the source give for CCCOc1ccc2c(c1Cc1ccc(Cl)cc1)c(=O)n(CCCO)c(=O)n2C [Compound 10, 5-(4-chlorobenzyl)-3-(3-hydroxypropyl)-1-methyl-6-propoxyquinazoline-2,4(1H,3H)-dione] here?
Answer: 4.3 nM

Question: How did the IC50 (TRPC5 channel [2]) turn out when Cn1c(=O)n(CCCO)c(=O)c2c(Cc3ccccc3)c(-c3cccc(OC(F)(F)F)c3)ccc21 [Compound 13, 5-benzyl-3-(3-hydroxypropyl)-1-methyl-6-(3-(trifluoromethoxy)phenyl)quinazoline-2,4(1H,3H)-dione] was run?
Answer: 31.2 nM

Question: Which IC50 (TRPC5 channel [2]) does the source give for COc1ccc2c(c1Cc1ccccc1)c(=O)n(CCCO)c(=O)n2C [Compound 2] here?
Answer: 27 nM

Question: For CCCOc1ccc2c(c1Cc1ccc(F)cc1)c(=O)n(CCCO)c(=O)n2C [Compound 8, 5-(4-fluorobenzyl)-3-(3-hydroxypropyl)-1-methyl-6-propoxyquinazoline-2,4(1H,3H)-dione], which IC50 (TRPC5 channel [1]) is on record?
Answer: 2 nM

Question: And the IC50 (TRPC5 channel [2])?
Answer: 1.71 nM
